Measured values published in patent publication US6737383B1, “Herbicidal oxadiazolidines” (priority 1999, dated 2004).

Legend:
wheat = experiment: Test B pre/postemergence wheat; assay type: in vivo, Triticum aestivum
Outline: (§1)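 Test chemicals in a non-phytotoxic solvent mixture with surfactant were sprayed preemergence onto planted seeds and postemergence onto plants 2 to 18 cm tall (1- to 4-leaf stage). After twelve to sixteen days in a greenhouse, injury was visually rated against untreated controls from 0 (no effect) to 10 (complete control).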

purple nutsedge = experiment: Test B pre/postemergence purple nutsedge; assay type: in vivo, Cyperus rotundus
Outline: as §1

giant foxtail = experiment: Test B pre/postemergence giant foxtail; assay type: in vivo, Setaria faberii
Outline: as §1

duck salad = experiment: Test B flood test duck salad; assay type: in vivo, Heteranthera limosa
Outline: (§2)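 Flood test on plants grown to the 2-leaf stage; treated plants kept in greenhouse twelve to sixteen days, then visually rated against controls on a 0 (no effect) to 10 (complete control) scale.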

rape = experiment: Test B pre/postemergence rape; assay type: in vivo, Brassica napus
Outline: as §1

cocklebur = experiment: Test B pre/postemergence cocklebur; assay type: in vivo, Xanthium strumarium
Outline: as §1

morningglory = experiment: Test B pre/postemergence morningglory; assay type: in vivo, Ipomoea hederacea
Outline: as §1

soybean = experiment: Test B pre/postemergence soybean; assay type: in vivo, Glycine max
Outline: as §1

pigweed = experiment: Test B pre/postemergence pigweed; assay type: in vivo, Amaranthus retroflexus
Outline: as §1

bamyardgrass = experiment: Test B flood test barnyardgrass; assay type: in vivo, Echinochloa crus-galli
Outline: as §2

bedstraw = experiment: Test B pre/postemergence bedstraw; assay type: in vivo, Galium aparine; conditions: Postemergence
Outline: as §1

surinam grass = experiment: Test B pre/postemergence surinam grass; assay type: in vivo, Brachiaria decumbens
Outline: as §1

smallflower flatsedge = experiment: Test B flood test smallflower flatsedge; assay type: in vivo, Cyperus difformis
Outline: as §2

corn = experiment: Test B pre/postemergence corn; assay type: in vivo, Zea mays
Outline: as §1

wild oat = experiment: Test B pre/postemergence wild oat; assay type: in vivo, Avena fatua
Outline: as §1

blackgrass = experiment: Test B pre/postemergence blackgrass; assay type: in vivo, Alopecurus myosuroides
Outline: as §1

rice = experiment: Test B flood test rice; assay type: in vivo, Oryza sativa
Outline: as §2

velvetleaf = experiment: Test B pre/postemergence velvetleaf; assay type: in vivo, Abutilon theophrasti
Outline: as §1

sugar beet = experiment: Test B pre/postemergence sugar beet; assay type: in vivo, Beta vulgaris
Outline: as §1

crabgrass = experiment: Test B pre/postemergence crabgrass; assay type: in vivo, Digitaria sanguinalis
Outline: as §1

[1] = Postemergence, Rate 125 g/ha, scale 0 to 10, 0 is no effect, 10 is complete control
[2] = Postemergence, Rate 500 g/ha, scale 0 to 10, 0 is no effect, 10 is complete control
[3] = Preemergence, Rate 62 g/ha, scale of 0 to 10 where 0 is no effect and 10 is complete control
[4] = Preemergence, Rate 125 g/ha, scale 0 to 10, 0 is no effect, 10 is complete control
[5] = Preemergence, Rate 500 g/ha, scale 0 to 10, 0 is no effect, 10 is complete control
[6] = Rate 62 g/ha, Postemergence, scale 0 to 10, 0 no effect, 10 complete control
[7] = Rate 62 g/ha, flood test species, Pre-emergence, visual evaluation after twelve to sixteen days
[8] = Rate 125 g/ha, under heading Pre-emergence, flood test species, visual evaluation after twelve to sixteen days
[9] = Rate 250 g/ha, Pre-emergence (flood test species), scale 0 to 10, 0 is no effect, 10 is complete control
[10] = Rate 500 g/ha, Pre-emergence section of Table B, 0 to 10 scale (0 no effect, 10 complete control)
[11] = Postemergence, Rate 250 g/ha, scale 0 to 10
[12] = Preemergence, Rate 250 g/ha, scale 0 to 10, 0 is no effect, 10 is complete control

CC(C)N(C(=O)n1oc(=O)n(CC(=O)C2CC2)c1=O)c1ccc(F)cc1 [Compound 488]
Wheat plant response rating (wheat; [1]): 0
Plant response rating, Wheat (wheat; [2]): 3
Plant response rating, Wheat (wheat; [3]): 0
Wheat plant response rating (wheat; [4]): 0
Wheat plant response rating (wheat; [5]): 5
Wheat plant response rating (wheat; [6]): 0
Nutsedge plant response rating (purple nutsedge; [1]): 0
Plant response rating, Nutsedge (purple nutsedge; [2]): 2
Plant response rating, Nutsedge (purple nutsedge; [3]): 0
Nutsedge plant response rating (purple nutsedge; [4]): 0
Nutsedge plant response rating (purple nutsedge; [5]): 0
Nutsedge plant response rating (purple nutsedge; [6]): 0
Giant foxtail plant response rating (giant foxtail; [1]): 8
Plant response rating, Giant foxtail (giant foxtail; [2]): 9
Plant response rating, Giant foxtail (giant foxtail; [3]): 9
Giant foxtail plant response rating (giant foxtail; [4]): 10
Giant foxtail plant response rating (giant foxtail; [5]): 10
Giant foxtail plant response rating (giant foxtail; [6]): 5
Plant response rating, Ducksalad (0 to 10 scale, 0 is no effect, 10 is complete control) (duck salad; [7]): 0
Ducksalad plant response rating (0 to 10 scale, 0 is no effect, 10 is complete control) (duck salad; [8]): 0
Ducksalad plant response rating (duck salad; [9]): 0
Ducksalad plant response rating (duck salad; [10]): 0
Rape plant response rating (rape; [1]): 0
Plant response rating, Rape (rape; [2]): 0
Plant response rating, Rape (rape; [3]): 1
Rape plant response rating (rape; [4]): 7
Rape plant response rating (rape; [5]): 10
Rape plant response rating (rape; [6]): 0
Cocklebur plant response rating (cocklebur; [1]): 0
Cocklebur plant response rating (cocklebur; [11]): 0
Plant response rating, Cocklebur (cocklebur; [2]): 0
Plant response rating, Cocklebur (cocklebur; [3]): 0
Cocklebur plant response rating (cocklebur; [4]): 0
Cocklebur plant response rating (cocklebur; [12]): 0
Cocklebur plant response rating (cocklebur; [5]): 0
Cocklebur plant response rating (cocklebur; [6]): 0
Morningglory plant response rating (morningglory; [1]): 2
Plant response rating, Morningglory (morningglory; [2]): 8
Plant response rating, Morningglory (morningglory; [3]): 0
Morningglory plant response rating (morningglory; [4]): 0
Morningglory plant response rating (morningglory; [5]): 0
Morningglory plant response rating (morningglory; [6]): 1
Soybean plant response rating (soybean; [1]): 4
Plant response rating, Soybean (soybean; [2]): 5
Plant response rating, Soybean (soybean; [3]): 0
Soybean plant response rating (soybean; [4]): 0
Soybean plant response rating (soybean; [5]): 1
Soybean plant response rating (soybean; [6]): 4
Redroot pigweed plant response rating (pigweed; [1]): 0
Plant response rating, Redroot pigweed (pigweed; [2]): 2
Plant response rating, Redroot pigweed (pigweed; [3]): 4
Redroot pigweed plant response rating (pigweed; [4]): 10
Redroot pigweed plant response rating (pigweed; [5]): 10
Redroot pigweed plant response rating (pigweed; [6]): 0
Plant response rating, Barnyardgrass (0 to 10 scale, 0 is no effect, 10 is complete control) (bamyardgrass; [7]): 0
Barnyardgrass plant response rating (0 to 10 scale, 0 is no effect, 10 is complete control) (bamyardgrass; [8]): 0
Barnyardgrass plant response rating (bamyardgrass; [9]): 0
Barnyardgrass plant response rating (bamyardgrass; [10]): 0
Bedstraw plant response rating (bedstraw; Rate 125 g/ha, scale 0 to 10, 0 is no effect, 10 is complete control): 2
Bedstraw plant response rating (bedstraw; Rate 250 g/ha, scale 0 to 10): 4
Plant response rating, Bedstraw (bedstraw; Rate 500 g/ha, scale 0 to 10, 0 is no effect, 10 is complete control): 9
Bedstraw plant response rating (bedstraw; Rate 62 g/ha, scale 0 to 10, 0 no effect, 10 complete control): 0
B. signalgrass plant response rating (surinam grass; [1]): 4
B. signalgrass plant response rating (surinam grass; Postemergence, Rate 250 g/ha, scale 0 to 10, 0 no effect, 10 complete control): 6
Plant response rating, B. signalgrass (surinam grass; [2]): 7
Plant response rating, B. signalgrass (surinam grass; [3]): 4
B. signalgrass plant response rating (surinam grass; [4]): 7
B. signalgrass plant response rating (surinam grass; [12]): 7
B. signalgrass plant response rating (surinam grass; [5]): 10
B. signalgrass plant response rating (surinam grass; [6]): 0
Plant response rating, S. Flatsedge (0 to 10 scale, 0 is no effect, 10 is complete control) (smallflower flatsedge; [7]): 0
S. Flatsedge plant response rating (0 to 10 scale, 0 is no effect, 10 is complete control) (smallflower flatsedge; [8]): 0
S. Flatsedge plant response rating (smallflower flatsedge; [9]): 0
S. Flatsedge plant response rating (smallflower flatsedge; [10]): 0
Corn plant response rating (corn; [1]): 0
Corn plant response rating (corn; [11]): 0
Plant response rating, Corn (corn; [2]): 0
Plant response rating, Corn (corn; [3]): 0
Corn plant response rating (corn; [4]): 0
Corn plant response rating (corn; [5]): 6
Corn plant response rating (corn; [6]): 0
Wild oats plant response rating (wild oat; [1]): 0
Plant response rating, Wild oats (wild oat; [2]): 5
Plant response rating, Wild oats (wild oat; [3]): 3
Wild oats plant response rating (wild oat; [4]): 8
Wild oats plant response rating (wild oat; [5]): 10
Wild oats plant response rating (wild oat; [6]): 0
Blackgrass plant response rating (blackgrass; [1]): 8
Blackgrass plant response rating (blackgrass; [11]): 8
Plant response rating, Blackgrass (blackgrass; [2]): 8
Plant response rating, Blackgrass (blackgrass; [3]): 5
Blackgrass plant response rating (blackgrass; [4]): 8
Blackgrass plant response rating (blackgrass; [12]): 8
Blackgrass plant response rating (blackgrass; [5]): 10
Blackgrass plant response rating (blackgrass; [6]): 1
Plant response rating, Rice (0 to 10 scale, 0 is no effect, 10 is complete control) (rice; [7]): 0
Rice plant response rating (0 to 10 scale, 0 is no effect, 10 is complete control) (rice; [8]): 0
Rice plant response rating (rice; [9]): 0
Rice plant response rating (rice; [10]): 0
Velvetleaf plant response rating (velvetleaf; [1]): 0
Plant response rating, Velvetleaf (velvetleaf; [2]): 1
Plant response rating, Velvetleaf (velvetleaf; [3]): 0
Velvetleaf plant response rating (velvetleaf; [4]): 2
Velvetleaf plant response rating (velvetleaf; [5]): 6
Velvetleaf plant response rating (velvetleaf; [6]): 0
Sugarbeets plant response rating (sugar beet; [1]): 0
Plant response rating, Sugarbeets (sugar beet; [2]): 1
Plant response rating, Sugarbeets (sugar beet; [3]): 0
Sugarbeets plant response rating (sugar beet; [4]): 4
Sugarbeets plant response rating (sugar beet; [5]): 7
Sugarbeets plant response rating (sugar beet; [6]): 0
Crabgrass plant response rating (crabgrass; [1]): 7
Crabgrass plant response rating (crabgrass; [11]): 8
Plant response rating, Crabgrass (crabgrass; [2]): 9
Plant response rating, Crabgrass (crabgrass; [3]): 8
Crabgrass plant response rating (crabgrass; [4]): 10
Crabgrass plant response rating (crabgrass; [5]): 10
